Experimental data from PubChem BioAssay AID1259411 (Chemical Carcinogenesis Research Information System (CCRIS), 2018).
Calls of active or inactive are those of the source. The rule behind the calls is not given here.

Test system: rodent carcinogenicity bioassays, tumor incidence
Assay: CCRIS carcinogenicity studies
Details: Species: MOUSE, Route: INTRAPERITONEAL, Dose: 0, 1.75 UMOL/MOUSE (TOTAL DOSE) ADMINISTERED DURING DAYS 1, 8, AND 15 OF LIFE (STUDY DURATION: 52 WK)
Procedure, shortened: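 Archive of carcinogenicity, mutagenicity, tumor promotion and tumor inhibition results drawn from journals, NCI reports and other sources, expert-reviewed; covers 1985-2011 and is no longer updated.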

What does the source list for `CCn1c2ccccc2c2ccccc21`?
carcinogen call (Strain/Sex: CD-1/FEMALE): inactive; negative; carcinogen call (Strain/Sex: CD-1/MALE): inactive; negative
